Laboratory results published in patent US4892870A, “Oxaza heterocycles and pharmaceutical compositions containing same” (Biofor, Ltd., priority 1988, dated 1990).

Experiments:
[1] = cited from G. Moore, U.S. Pat. No. 4,337,345; cited from earlier work
acetylcholine writhing = assay: Acetylcholine Writhing Assay (analgesic); assay type: in vivo, male CD-1 mice; settings: Mus musculus; oral, 45 min before intraperitoneal acetylcholine; writhes counted 10 minutes
Method: Analgesic: The "Acetylcholine Writhing Assay" (ACH) of collier et al [Nature: Vol. 204: page 1316 (1964)] was employed. In this study the test compounds were administered orally to mice and 45 minutes later the mice were injected with acetylcholine. The frequency of writhing was counted in each animal and the response elicited in the drug-treated mice was compared with the response of those given acetylcholine alone.
Analgesic activity was evaluated via the mouse acetylcholine writhing test using a modification of the procedure described by Collier, et al in Nature (New Biol.) Vol. 204; page 1316 (1964) and Br. J. Pharmacol, Chemother, Vol. 32: page 295 (1968). Each test group consisted of ten male CD-1 mice (Charles River Laboratories) weighing 18-28 grams each. Test compounds suspended in a mixture of 0.25% methylcellulose solution […] were administered orally by gavage and fort five minutes later the mice were injected intraperitoneally with acetylcholine (0.55 mg/ml in 0.25% methylcellulose). The number of writhes in each group of mice were counted for 10 minutes immediately following the injection of acetylcholine and the percent inhibition was calculated as follows: [formula] Four dose levels were used to calculate the ED50. of each test compounds.

hind paw edema [2] = assay: Adjuvant Arthritis Assay; Developing (percent inhibition of hind paw edema); assay type: in vivo, female Lewis rats; settings: Rattus norvegicus, 96 h, once daily for 4 days in 0.25% methylcellulose, paw volumes on fifth day
Method: Anti-Inflammatory: This activity was evaluated via a modification of the Adjuvant Arthritis Assay (AA) described by S. Wong et al in "The Journal of Pharmacology and Experimental Therapeutics", Vol. 185. […] This assay measures the ability of the test compound to antogonize local edema, a characteristic of the inflammatory response. […] The left and right rear paws of female Lewis rats (Charles River Laboratories) weighing 160-180 grams each were measured by mercury displacement prior to injection (Day Zero). Adjuvant arthritis was induced in this rat colony by subcutaneous injection of Mycobacterium butyricum (0.75 mg in 0.1 ml light mineral oil, Fisher) using an automated Cornwall syringe. On days 11-15 post-adjuvant the injected animals with 0.25 to 0.75 ml. paw edema were selected and distributed evenly, according to edema size, into control and experimental groups of ten rats each. Vehicle control and drug treatments were assigned to the groups at random. The assay was performed using a variable dose level for each test compound per kilogram per day in 0.25% methylcellulose. vehicle. All animals were dosed once daily for 4 days and on the fifth day both hind paw volumes were again measured using mercury displacement. The hind paw edema was determined for each rat by subtracting the hind paw volume measured on Day Zero from the hind paw volume measured on the fifth day of the study. Group means were determined and the drug effect was calculated as percent inhibition of the hind paw edema according to the following equation: [formula] […] The known anti-inflammatory NAPROXEN was also tested for comparison purposes.

LD50 = settings: rat, in vivo, po
yeast-induced fever = assay: Antipyretic Evaluation (yeast-induced fever); assay type: in vivo, male Sprague-Dawley rats; settings: 300 mg/kg oral; Example 1 in olive oil, Example 2 in 0.25% methylcellulose; all decreases significant at p <0.05 (paired-samples Student's t-Test)
Method: Antipyretic: This activity was evaluated by creating a yeast-induced fever in rats according to a modified method of the procedure described by Loux e al in "Toxicology and Applied Pharmacology", Vol. 22: page 672 (1972). In this assay rats injected with yeast in distilled water were dosed with test compounds, aspirin (positive control) and a vehicle (negative control) and the observed differences in body temperature were analyzed statistically.
Antipyretic activity was evaluated using a modification of the test described by Loux et al, in Toxicology and Applied Pharmacology, 22:672(1972), that is, yeast-induced fever in rats. Each test group consisted of ten male Sprague-Dawley rats (Charles River Laboratories), weighing 180-225 grams each. Eighteen hours prior to compound administration the rats were weighed and body temperatures were recorded. Food was removed with water available ad libitum.
Each animal was injected subcutaneously into the central dorsal region with five (5.0) ml portions of a 15% (150 mg/1.0 ml) suspension of Fleischman's yeast in distilled water.
Test compounds suspended in 0.25% methylcellulose (0.25% MC) or olive oil were administered orally by gavage nineteen hours following the yeast injection. Body temperatures were taken and recorded one hour after compound administration. Aspirin (300 mg/kg) was the reference standard drug administered with each antipyretic study. The mean temperature of the compound-treated groups, positive control group (Aspirin) and negative control group (vehicle) were calculated at 18 hours and 20 hours. The data was analyzed statistically using a paired-samples Student's t-Test.

hind paw edema [3] = assay: Adjuvant Arthritis Assay; Immunomodulatory; assay type: in vivo, Lewis female rats; settings: 50 mg/kg oral, Day 5 to 9 inclusive; edema on Day 15
Method: Immunomodulatory: This activity was determined by using a Modified Adjuvant Assay procedure in which female rats were injected with Mycobacterium butyricum to induce hind paw edema. The test compounds were administered orally and the difference in volume between dosed and non-dosed paws was determined.
Lewis female rats were injected in the tail subcutaneously with Mycobacterium butyricum (0.75 mg in 0.1 ml light mineral oil, Fisher) on Day Zero. Prior to injection the volumes of the left and right rear paws were measured by mercury displacement. All rats were dosed orally with vehicle or test compounds on Day 5 to 9 inclusive. The volume of both hind paws were determined on Day 15 and the percent inhibitions were calculated based upon average edema on Day 15 relative to the edema mean in the control group.

paw edema = assay: Adjuvant Arthritis Assay; Established (chronic anti-inflammatory and antiarthritic); assay type: in vivo, rats; settings: Rattus norvegicus, 552 h, oral once daily on days 19-22, paw volumes day 23
Method: In this assay the differences between dosed and non-dosed paw values were determined postadjuvant. Chronic anti-inflammatory and antiarthritic activity were evaluated using the method described by S. Wong in "Tolmetin: A New Non-steroidal Anti-inflammatory Agent" Editor: John R. Ward, Excerpta Medica, N.J. pp. 1-27 (1976). On day 19 post adjuvant all rats were evenly distributed according to edema size. Doses of treatment or vehicle were administered orally to all rats once daily on days 19-22 inclusive. Final paw volumes were determined on day 23 post adjuvant.

CC(C)(C)c1cc(S(=O)(=O)c2ccccc2)cc(C(C)(C)C)c1O [2,6-di-(tert-butyl)-4-(phenylsulfonyl)phenol]
anti-inflammatory activity [1]: absence of anti-inflammatory activity

CN1OC/C(=C\c2cc(C(C)(C)C)c(O)c(C(C)(C)C)c2)C1=O [Example 1 (E-Isomer), 4-(3,5-di-tert-butyl-4-hydroxybenzylidene)-2-methyl-3-isoxazolidinone]
ED50 (acetylcholine writhing): 18 mg/kg | ED50 (hind paw edema [2]): 20 mg/kg

CN1OCC(=Cc2cc(C(C)(C)C)c(O)c(C(C)(C)C)c2)C1=O [Example 1, 4-(3,5-Di-tert-Butyl-4-Hydroxybenzylidene)-2-Methyl-3-Isoxazolidinone; E and Z Isomers]
LD50 (LD50): > 1000 mg/kg | Change in Temperature, 18-20 Hour Period (yeast-induced fever): -1.33 °C | % Inhibition (hind paw edema [3]): 43% | ED50 (paw edema): 44 mg/kg

CN1OC/C(=C/c2cc(C(C)(C)C)c(O)c(C(C)(C)C)c2)C1=O [Example 1 (Z-Isomer), 4-(3,5-di-tert-butyl-4-hydroxybenzylidene)-2-methyl-3-isoxazolidinone]
ED50 (hind paw edema [2]): 36 mg/kg

Cc1cc(C(C)(C)C)c(O)c(C(C)(C)C)c1 [3,5-di(tert-butyl)-4-hydroxytoluene]
anti-inflammatory activity [1]: little or no value as an anti-inflammatory agent

CN1OCCC(=Cc2cc(C(C)(C)C)c(O)c(C(C)(C)C)c2)C1=O [Example 2, Dihydro-4-(3,5-Di-tert-Butyl-4-Hydroxybenzylidene)-2-Methyl-2H-1,2-Oxazin-3(4H)-one]
ED50 (acetylcholine writhing): 2.8 mg/kg | LD50 (LD50): > 1000 mg/kg | ED50 (hind paw edema [2]): 7 mg/kg | Change in Temperature, 18-20 Hour Period (yeast-induced fever): -1.33 °C | % Inhibition (hind paw edema [3]): 39% | ED50 (paw edema): 8 mg/kg

CC(C)(C)c1cccc(C(C)(C)C)c1O [2,6-di-(tert-butyl)phenol]
anti-inflammatory activity [1]: absence of anti-inflammatory activity

COc1ccc2cc([C@H](C)C(=O)O)ccc2c1 [NAPROXEN, reference compound]
ED50 (acetylcholine writhing): 6.2 mg/kg | ED50 (hind paw edema [2]): 28 mg/kg | ED50 (paw edema): 28 mg/kg

CC(=O)c1cc(C(C)(C)C)c(O)c(C(C)(C)C)c1 [4-acetyl-2,6-(di-tert-butyl)phenol]
anti-inflammatory activity [1]: absence of anti-inflammatory activity

CC(C)(C)c1cc(C(=O)c2cc(C(=O)O)ccc2Cl)cc(C(C)(C)C)c1O [4-(5-carboxy-2-chlorobenzoyl)-2,6-di-(tert-butyl)phenol]
anti-inflammatory activity [1]: absence of anti-inflammatory activity

CCCCCCCCc1cc(C(C)(C)C)c(O)c(C(C)(C)C)c1 [4-n-octyl-2,6-di-(tert-butyl)phenol]
anti-inflammatory activity [1]: absence of anti-inflammatory activity

CC(C)(C)c1cc(C(=O)c2ccccc2Cl)cc(C(C)(C)C)c1O [4-(2-chlorobenzoyl)-2,6-di-(tert-butyl)phenol]
anti-inflammatory activity [1]: absence of anti-inflammatory activity

CC(=O)Oc1ccccc1C(=O)O [Aspirin, reference compound]
Change in Temperature, 18-20 Hour Period (yeast-induced fever): -2.05 °C

CC(C)(C)c1cc(C(N)=O)cc(C(C)(C)C)c1O [4-carboxamido-2,6-di-(tert-butyl)phenol]
anti-inflammatory activity [1]: absence of anti-inflammatory activity
